Structures can show the parent of a compound that is named as a salt. Where two headings read alike, the source gives them in different places.

For one series, the target named is T1, RORγ (Homo sapiens, UniProt P51449).
T1 construct: expressed in transfected cells
T1 sequence (P51449 1-497 isoform P51449-2): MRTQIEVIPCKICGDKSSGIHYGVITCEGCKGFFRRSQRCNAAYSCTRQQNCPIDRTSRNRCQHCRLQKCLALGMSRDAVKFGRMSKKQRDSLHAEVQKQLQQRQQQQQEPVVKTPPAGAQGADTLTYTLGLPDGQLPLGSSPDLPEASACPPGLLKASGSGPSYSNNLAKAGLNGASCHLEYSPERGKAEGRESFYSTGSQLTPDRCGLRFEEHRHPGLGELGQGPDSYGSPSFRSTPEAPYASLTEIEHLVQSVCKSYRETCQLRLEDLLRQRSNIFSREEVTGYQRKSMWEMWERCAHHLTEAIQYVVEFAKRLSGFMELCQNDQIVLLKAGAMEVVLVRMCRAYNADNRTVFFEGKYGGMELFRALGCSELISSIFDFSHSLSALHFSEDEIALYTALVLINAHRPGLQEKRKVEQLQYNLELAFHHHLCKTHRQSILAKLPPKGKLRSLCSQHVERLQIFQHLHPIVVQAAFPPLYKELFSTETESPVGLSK
As to the kind of experiment: Jurkat cell luciferase assay (human IL17 promoter reporter, RORγt overexpression). It counts as cell-based. To be noted: mean pIC50; detection limit of the assay 5. The source says: RORγ is known to bind to a CNS (conserved non-coding sequences) enhancer element in the IL17 promoter. In this assay, RORγ activity is indirectly assessed using a luciferase reporter construct which contains the human IL17 promoter having the RORγ-specific CNS enhancer element. Inhibition of RORγ activity by a compound will result in a decrease in luciferase activity of Jurkat cells transfected with the reporter construct.
. For the 1.1 Kb fragment, PCR was used to amplify human IL17 proximal promoter region from genomic DNA of 293T cells using primers as follows: forward primer, 5′-[…]-3′ (SEQ ID NO. 4) (Xhol site is underlined) and reverse primer, 5′-[…]-3′ SEQ ID NO. 5) (HindIII site is underlined). The 1.1 kb DNA bands were excised, purified, and inserted into pMD19-T Simple Vector (Takara). After DNA sequencing confirmation, the 1.1 kb DNA was digested with XhoI and HindIII and inserted into XhoI/HindIII sites of pGL4.31[luc2P/GAL4UAS/Hygro] (Promega) to generate the pIL17-lkb-luc reporter construct. For the 1.9 Kb fragment, PCR was used to amplify human IL17 promoter region from genomic DNA using primers as follows: forward primer, 5′-[…]-3′ (SEQ ID NO. 6) (KpnI site is underlined) and reverse primer, 5′-[…]-3′ (SEQ ID NO. 7)(XhoI site is underlined). The resulting 1.9 kb DNA bands were excised, gel purified, and cloned into a pMD19-T Simple Vector (Takara). […] The 1.9 kb DNA fragment was released by double digestion with KpnI and XhoI and inserted into pIL17-lkb-luc to generate the luciferase reporter plasmid “pIL17-3kb-CNS-luc.” To overexpress RORγt, the full-length cDNA of human RORγt identical to the published sequence NM13 001001523 was cloned into pcDNA3.1 at the KpnI-NotI cloning sites to generate the RORγt overexpression plasmid “CDNA3.1DhRORγ49-8”. […]
Compounds were dissolved in DMSO at three concentrations, 10 mM, 400 uM and 16 uM, and were dispensed into 384-wells assay plate at 40 nl, 12.5 nl, 5 nl respectively. The volume was adjusted with pure DMSO to a give a final uniform volume of 40 nl Jurkat cells described above were counted and centrifuged. […]

In a further series the test system is Mouse CD4+ cells. As to the kind of experiment: Th17 cell differentiation assay (IL-17 ELISA). The series is classed as cell-based. How it is done:
Mouse CD4+cells were purified using the CD4+ T Cell Isolation II Kit according to manufacturer's instructions (Miltenyi Biotec). 96 well plates were pre-coated with anti-mCD3 antibody. Un-coated wells were used as controls. CD4+ Cells were resuspended in RPMI 1640 complete medium and were added to the 96-well plates. Cytokine cocktail and the compound were then added to the wells. Antibodies and cytokines (all from R&D Systems) used in the assay were selected from the following: anti-mCD3; anti-mCD28; anti-mIFNγ; anti-mIL4; mIL-6; mIL-23; mIL-1β; hTGF-β1. The culture was incubated at 37° C. for 3 days and supernatants were collected for ELISA. The IL-17 ELISAs were performed according to manufacturer's instructions (R&D Systems). The results were analyzed using Prism software with non-linear regression to determine pIC50.

Series [1] in a line: In vitro percutaneous study (Franz diffusion cells, aqueous cream). The series is classed as in vitro ADME, human. An excerpt:
The in vitro percutaneous study is aimed to predict the level of percutaneous penetration obtained for a compound in a topical formulation for psoriasis. This assay coupled with the intrinsic potency of the compound are used to predict the likelihood of success of a compound to engage the target. The higher the ratio of the percutaneous penetration to the intrinsic potency, the higher the ratio of local skin concentration to the intrinsic potency and therefore the higher the chance of a compound to engage the target in a topical formulation.
The compounds were manufactured in a modified aqueous cream at pH=6.
The study was conducted with dermatomed abdominal human skin sourced from three skin donors using 2 cm2 Franz diffusion cells. The receiving fluid consisted of Bovine serum albumin (4% w/v) in 0.1% w/v sodium azide in Phospate Buffer Saline and was heated at 37° C. in order to obtain 32° C. at the skin surface. The cream formulation was applied on the donor side at a 10 mg dose, i.e. 5 mg/cm^2. The samples taken at the following time points: t=0, 3, 6, 9 and 24 h. The receiver samples were then assayed using a method based upon protein precipitation with acetonitrile followed by LC/MS/MS analysis. The percutaneous flux (in ng/cm^2/hr) was determined using the individual API (in a multiple composition) that had permeated into the receiver compartment over 24 hrs per cm^2.

Setting [2] is: 72 h, mean pIC50, IL-17 ELISA, 3 days culture, detection limit of the assay 5, read-out: pIC50 in the Th17 cell differentiation assay (converted).

Consider `Cc1c(CN2CCN(C(=O)C3CCCC3)[C@@H](C)C2)cc(F)cc1NC(=O)c1cccc(C#N)c1` [Example 66, (S)-3-cyano-N-(3-((4-(cyclopentanecarbonyl)-3-methylpiperazin-1-yl)methyl)-5-fluoro-2-methylphenyl)benzamide], for which the IC50 against RORγ was roughly 5.01 nM; in the series with Mouse CD4+ cells (setting [2]) it was roughly 0.794 nM; with Mouse CD4+ cells (table with percutaneous study, read-out: Th17 cell differentiation assay IC50), 0.4 ng/mL; in the series with Mouse CD4+ cells (table with percutaneous study, read-out: Th17 cell differentiation assay pIC50 (converted)) it was 0.794 nM. For the same molecule, in series [1] (1.0% w/w in aqueous cream pH=6, 5 mg/cm^2, human skin from three donors), the “Flux over 24 hrs” value is recorded as 3.43 ng/cm^2/hr. The “ratio of percutaneous penetration (Flux) to intrinsic potency (Th17 cell differentiation assay IC50)” value in series [1] (ranking among the three compounds tested) is “highest ratio”.
With `Cc1c(CN2CCN(C(=O)C3CCCC3)[C@@H](C)C2)cc(Cl)cc1NC(=O)c1cccc(C#N)c1` [Example 193, (S)-N-(5-chloro-3-((4-(cyclopentanecarbonyl)-3-methylpiperazin-1-yl)methyl)-2-methylphenyl)-3-cyanobenzamide, trifluoroacetic acid salt], the values for the IC50 at RORγ and in the series with Mouse CD4+ cells (setting [2]) were roughly 2.51 nM and roughly 5.01 nM, respectively.

Source of the values: patent publication US10005731B2, “Modulators of the retinoid-related orphan receptor gamma (ROR-gamma) for use in the treatment of autoimmune and inflammatory diseases” (Glaxo Group Limited, priority 2012, dated 2018).
